Assay results from patent US9850225B2, “Compounds useful as immunomodulators” (BRISTOL-MYERS SQUIBB COMPANY, priority 2014, dated 2017).

target: PD-1/PD-L1 interaction (PD-1-Ig / PD-L1-His) (Homo sapiens (Human), UniProt Q9NZQ7); assay: PD-1/PD-L1 Homogenous Time-Resolved Fluorescence (HTRF) binding assay; conditions: PD-1/PD-L1 HTRF binding assay; numeric value; read-out: Range or IC50
Procedure, shortened: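 HTRF detection used 1 nM europium-cryptate anti-Ig and 20 nM APC anti-His. Compounds first saw 10 nM PD-L1-His for 15 min, and 20 nM PD-1-Ig was then added for another 15 min. Buffer was dPBS plus 0.1% BSA and 0.05% Tween-20. All concentrations are final.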

Sequence of PD-1/PD-L1 interaction (PD-1-Ig / PD-L1-His) (Q9NZQ7 other isoform, or with tags, fused parts or gaps): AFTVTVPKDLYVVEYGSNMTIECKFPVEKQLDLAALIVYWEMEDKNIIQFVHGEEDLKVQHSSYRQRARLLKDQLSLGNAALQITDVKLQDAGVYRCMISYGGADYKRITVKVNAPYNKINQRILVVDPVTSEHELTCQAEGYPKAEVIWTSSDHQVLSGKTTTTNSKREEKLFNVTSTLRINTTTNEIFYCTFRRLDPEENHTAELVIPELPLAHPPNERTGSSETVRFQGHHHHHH

IC50 | Structure (SMILES)
2.71 nM | Cc1c(COc2cc(OCc3cccc(C#N)c3)c(CN[C@H](CCO)C(=O)O)cc2Cl)cccc1-c1ccc2c(c1)OCCO2 [Example 1205, (R)-2-((5-chloro-2-((3-cyanobenzyl)oxy)-4-((3-(2,3-dihydrobenzo[b][1,4]dioxin-6-yl)-2-methylbenzyl)oxy)benzyl)amino)-4-hydroxybutanoic acid]
12.7 nM | Cc1c(COc2cc(OCc3cccc(C#N)c3)c(CNC(C(=O)O)C(C)(C)O)cc2Cl)cccc1-c1ccc2c(c1)OCCO2 (stereo not shown) [Example 1210, 2-((5-chloro-2-((3-cyanobenzyl)oxy)-4-((3-(2,3-dihydrobenzo[b][1,4]dioxin-6-yl)-2-methylbenzyl)oxy)benzyl)amino)-3-hydroxy-3-methylbutanoic acid]
10.1 nM | Cc1c(COc2cc(OCc3cccc(C#N)c3)c(CNC(CO)(Cc3ccccc3)C(=O)O)cc2Cl)cccc1-c1ccc2c(c1)OCCO2 (stereo not shown) [Example 1218, 2-benzyl-2-((5-chloro-2-((3-cyanobenzyl)oxy)-4-((3-(2,3-dihydrobenzo[b][1,4]dioxin-6-yl)-2-methylbenzyl)oxy)benzyl)amino)-3-hydroxypropanoic acid]
6.07 nM | Cc1c(COc2cc(OCc3cccc(C#N)c3)c(CNC3(C(=O)O)CCN(C)CC3)cc2Cl)cccc1-c1ccc2c(c1)OCCO2 [Example 1220, 4-((5-chloro-2-((3-cyanobenzyl)oxy)-4-((3-(2,3-dihydrobenzo[b][1,4]dioxin-6-yl)-2-methylbenzyl)oxy)benzyl)amino)-1-methylpiperidine-4-carboxylic acid]

same assay, conditions: PD-1/PD-L1 HTRF binding assay; value given as range class; read-out: Range or IC50

IC50 | Structure (SMILES)
0.6 to 10 nM | Cc1c(COc2cc(OCc3cccc(C#N)c3)c(CN[C@H](Cc3cscn3)C(=O)O)cc2Cl)cccc1-c1ccc2c(c1)OCCO2 [Example 1206, (R)-2-((5-chloro-2-((3-cyanobenzyl)oxy)-4-((3-(2,3-dihydrobenzo[b][1,4]dioxin-6-yl)-2-methylbenzyl)oxy)benzyl)amino)-3-(thiazol-4-yl)propanoic acid]
10 to 100 nM | Cc1c(COc2cc(OCc3cccc(C#N)c3)c(CN[C@@H](Cc3cncn3C)C(=O)O)cc2Cl)cccc1-c1ccc2c(c1)OCCO2 [Example 1207, (S)-2-((5-chloro-2-((3-cyanobenzyl)oxy)-4-((3-(2,3-dihydrobenzo[b][1,4]dioxin-6-yl)-2-methylbenzyl)oxy)benzyl)amino)-3-(1-methyl-1H-imidazol-5-yl)propanoic acid]
0.6 to 10 nM | Cc1c(COc2cc(OCc3cccc(C#N)c3)c(CN[C@@H](Cc3cscn3)C(=O)O)cc2Cl)cccc1-c1ccc2c(c1)OCCO2 [Example 1208, (S)-2-((5-chloro-2-((3-cyanobenzyl)oxy)-4-((3-(2,3-dihydrobenzo[b][1,4]dioxin-6-yl)-2-methylbenzyl)oxy)benzyl)amino)-3-(thiazol-4-yl)propanoic acid]
10 to 100 nM | Cc1c(COc2cc(OCc3cccc(C#N)c3)c(CNC(C(=O)O)c3c[nH]c4ccccc34)cc2Cl)cccc1-c1ccc2c(c1)OCCO2 (stereo not shown) [Example 1211, 2-((5-chloro-2-((3-cyanobenzyl)oxy)-4-((3-(2,3-dihydrobenzo[b][1,4]dioxin-6-yl)-2-methylbenzyl)oxy)benzyl)amino)-2-(1H-indol-3-yl)acetic acid]
0.6 to 10 nM | Cc1c(COc2cc(OCc3cccc(C#N)c3)c(CNCC(O)CN3CCOCC3)cc2Cl)cccc1-c1ccc2c(c1)OCCO2 (stereo not shown) [Example 1212, 3-((4-chloro-5-((3-(2,3-dihydrobenzo[b][1,4]dioxin-6-yl)-2-methylbenzyl)oxy)-2-(((2-hydroxy-3-morpholinopropyl)amino)methyl)phenoxy)methyl)benzonitrile]
10 to 100 nM | Cc1c(COc2cc(OCc3cccc(C#N)c3)c(CN3CCOCC3C(=O)O)cc2Cl)cccc1-c1ccc2c(c1)OCCO2 (stereo not shown) [Example 1213, 4-(5-chloro-2-((3-cyanobenzyl)oxy)-4-((3-(2,3-dihydrobenzo[b][1,4]dioxin-6-yl)-2-methylbenzyl)oxy)benzyl)morpholine-3-carboxylic acid]
0.6 to 10 nM | Cc1c(COc2cc(OCc3cccc(C#N)c3)c(CNC(CO)(C(=O)O)C(C)C)cc2Cl)cccc1-c1ccc2c(c1)OCCO2 (stereo not shown) [Example 1214, 2-((5-chloro-2-((3-cyanobenzyl)oxy)-4-((3-(2,3-dihydrobenzo[b][1,4]dioxin-6-yl)-2-methylbenzyl)oxy)benzyl)amino)-2-(hydroxymethyl)-3-methylbutanoic acid]
10 to 100 nM | Cc1c(COc2cc(OCc3cccc(C#N)c3)c(CN3C[C@H](F)C[C@H]3C(=O)O)cc2Cl)cccc1-c1ccc2c(c1)OCCO2 [Example 1215, (2S,4R)-1-(5-chloro-2-((3-cyanobenzyl)oxy)-4-((3-(2,3-dihydrobenzo[b][1,4]dioxin-6-yl)-2-methylbenzyl)oxy)benzyl)-4-fluoropyrrolidine-2-carboxylic acid]
100 to 20000 nM | Cc1c(COc2cc(OCc3cccc(C#N)c3)c(CNC(CC(F)(F)F)C(=O)O)cc2Cl)cccc1-c1ccc2c(c1)OCCO2 (stereo not shown) [Example 1216, 2-((5-chloro-2-((3-cyanobenzyl)oxy)-4-((3-(2,3-dihydrobenzo[b][1,4]dioxin-6-yl)-2-methylbenzyl)oxy)benzyl)amino)-4,4,4-trifluorobutanoic acid]
10 to 100 nM | Cc1c(COc2cc(OCc3cccc(C#N)c3)c(CN[C@@H](Cc3cccc(C#N)c3)C(=O)O)cc2Cl)cccc1-c1ccc2c(c1)OCCO2 [Example 1217, (S)-2-((5-chloro-2-((3-cyanobenzyl)oxy)-4-((3-(2,3-dihydrobenzo[b][1,4]dioxin-6-yl)-2-methylbenzyl)oxy)benzyl)amino)-3-(3-cyanophenyl)propanoic acid]
0.6 to 10 nM | Cc1c(COc2cc(OCc3cccc(C#N)c3)c(CN3CC[C@H](O)[C@H]3C(=O)O)cc2Cl)cccc1-c1ccc2c(c1)OCCO2 [Example 1219, (2S,3S)-1-(5-chloro-2-((3-cyanobenzyl)oxy)-4-((3-(2,3-dihydrobenzo[b][1,4]dioxin-6-yl)-2-methylbenzyl)oxy)benzyl)-3-hydroxypyrrolidine-2-carboxylic acid]
0.6 to 10 nM | Cc1c(COc2cc(OCc3cccc(C#N)c3)c(CN[C@@H](Cc3ccccn3)C(=O)O)cc2Cl)cccc1-c1ccc2c(c1)OCCO2 [Example 1221, (S)-2-((5-chloro-2-((3-cyanobenzyl)oxy)-4-((3-(2,3-dihydrobenzo[b][1,4]dioxin-6-yl)-2-methylbenzyl)oxy)benzyl)amino)-3-(pyridin-2-yl)propanoic acid]
10 to 100 nM | Cc1c(COc2cc(OCc3cccc(C#N)c3)c(CN3CCSC[C@@H]3C(=O)O)cc2Cl)cccc1-c1ccc2c(c1)OCCO2 [Example 1222, (S)-4-(5-chloro-2-((3-cyanobenzyl)oxy)-4-((3-(2,3-dihydrobenzo[b][1,4]dioxin-6-yl)-2-methylbenzyl)oxy)benzyl)thiomorpholine-3-carboxylic acid]
0.6 to 10 nM | Cc1c(COc2cc(OCc3cccc(C#N)c3)c(CNC(C)(C)CN3CCN(C)CC3)cc2Cl)cccc1-c1ccc2c(c1)OCCO2 [Example 1223, 3-((4-chloro-5-((3-(2,3-dihydrobenzo[b][1,4]dioxin-6-yl)-2-methylbenzyl)oxy)-2-(((2-methyl-1-(4-methylpiperazin-1-yl)propan-2-yl)amino)methyl)phenoxy)methyl)benzonitrile]
10 to 100 nM | Cc1c(COc2cc(OCc3cccc(C#N)c3)c(CN3CCN(C)CC3C(=O)O)cc2Cl)cccc1-c1ccc2c(c1)OCCO2 (stereo not shown) [Example 1224, 1-(5-chloro-2-((3-cyanobenzyl)oxy)-4-((3-(2,3-dihydrobenzo[b][1,4]dioxin-6-yl)-2-methylbenzyl)oxy)benzyl)-4-methylpiperazine-2-carboxylic acid]
0.6 to 10 nM | Cc1c(COc2cc(OCc3cccc(C#N)c3)c(CNCC(O)CN3CCCC3=O)cc2Cl)cccc1-c1ccc2c(c1)OCCO2 (stereo not shown) [Example 1225]
10 to 100 nM | Cc1c(COc2cc(OCc3cccc(C#N)c3)c(CN3CCc4nc[nH]c4C3C(=O)O)cc2Cl)cccc1-c1ccc2c(c1)OCCO2 (stereo not shown) [Example 1226, 5-(5-chloro-2-((3-cyanobenzyl)oxy)-4-((3-(2,3-dihydrobenzo[b][1,4]dioxin-6-yl)-2-methylbenzyl)oxy)benzyl)-4,5,6,7-tetrahydro-3H-imidazo[4,5-c]pyridine-4-carboxylic acid]
100 to 20000 nM | Cc1c(COc2cc(OCc3cccc(C#N)c3)c(CN[C@@H](Cn3ncnn3)C(=O)O)cc2Cl)cccc1-c1ccc2c(c1)OCCO2 [Example 1227, (S)-2-((5-chloro-2-((3-cyanobenzyl)oxy)-4-((3-(2,3-dihydrobenzo[b][1,4]dioxin-6-yl)-2-methylbenzyl)oxy)benzyl)amino)-3-(2H-tetrazol-2-yl)propanoic acid]
10 to 100 nM | Cc1c(COc2cc(OCc3cccc(C#N)c3)c(CN[C@H](Cc3cn(Cc4ccccc4)cn3)C(=O)O)cc2Cl)cccc1-c1ccc2c(c1)OCCO2 [Example 1228, (R)-3-(1-benzyl-1H-imidazol-4-yl)-2-((5-chloro-2-((3-cyanobenzyl)oxy)-4-((3-(2,3-dihydrobenzo[b][1,4]dioxin-6-yl)-2-methylbenzyl)oxy)benzyl)amino)propanoic acid]
0.6 to 10 nM | Cc1c(COc2cc(OCc3cccc(C#N)c3)c(CNCc3nnn[nH]3)cc2Cl)cccc1-c1ccc2c(c1)OCCO2 [Example 1229, 3-((2-((((1H-tetrazol-5-yl)methyl)amino)methyl)-4-chloro-5-((3-(2,3-dihydrobenzo[b][1,4]dioxin-6-yl)-2-methylbenzyl)oxy)phenoxy)methyl)benzonitrile]
0.6 to 10 nM | Cc1c(COc2cc(OCc3cccc(C#N)c3)c(CN3CCCC[C@H]3C(=O)O)cc2Cl)cccc1-c1ccc2c(c1)OCCO2 [Example 1230, (S)-1-(5-chloro-2-((3-cyanobenzyl)oxy)-4-((3-(2,3-dihydrobenzo[b][1,4]dioxin-6-yl)-2-methylbenzyl)oxy)benzyl)piperidine-2-carboxylic acid]
